These results are taken from patent publication US12508275B2, “Neomycin based compounds, and pharmaceutical use thereof” (UNIVERSITÉ COTE D'AZUR, priority 2019, dated 2025).

The subject of one data set is GB5 cells. Nature of the data set: Clonal expansion (clonal proliferation) of GB5. The data set is classed as cell-based, human. The protocol: FIG. 2: Compounds 9a-b and 18a-b effect on stemness marker expression, clonal expansion and mitosis in GB5 cells. (A) NESTIN expression was assessed by immunofluorescence in GB5 treated with increasing amount of Compounds 9a-b and 18a. The number of NESTIN positive cells was counted for each treatment and express as percentage of the control (100%). The results are the meaning of at least two separate experiments. […] (C) Clonal expansion analysis was performed with GB5 cells as described in the material and method section. Two and three weeks later, the number of spheroids is counted and reported as percentage of the initial number of cells in the well. The results are the meaning of a minimum of two separate experiments. (D) The number of mitosis in the culture was determined by the detection of the number of cells positive for histone H3 phosphorylated on ser-10 (H3-ser10). H3-ser10 expression was assessed by immunofluorescence in GB5 treated with increasing amount of Compounds 9a-b and 18a. The number of positive cells was counted for each treatment and express as percentage of the control (100%). The results are the meaning of at least two separate experiments.
Clonal proliferation: TG6 and GB5 were seeded at 10 cells/well in 96 wells plate in NS34+ medium alone or containing growing concentration of Compounds 9a-b and 18a-b. Immediately after seeding, the real number of cells in the well was determined by direct count. Two and three weeks later, the resulting number of spheroids in each well was evaluated by a direct count. The % of clonal efficiency was calculated in dividing […].
It was further investigated the effects of selected compounds on GSC clonal expansion as well as their capacity of mitosis (FIGS. 2B and C). Compounds 9a-b and 18a treatment altered GSC clonal expansion and mitosis. The most efficient inhibition of clonal expansion was provided by Compound 9a treatment (IC50<10 uM) while both Compounds 9a-b were the most efficient for mitosis inhibition (IC50<10 uM) (FIGS. 2C and D).

Data set [1] relates to GSC expressing a luciferase gene (GB1-luc) brain tumors. Nature of the data set: Orthotopic GB1-luc xenograft, treatment of already formed tumors. Conditions: 7.5 mg/kg three times a week, live imaging, vs DMSO; 11th week P value=0,017. It is filed as in vivo, nude mice. The method, then:
FIG. 3: Nude mice were orthotopically xenografted by luminescent patient derived GSC. (A-B) Two weeks following injections, mice were intraperitoneally injected with 10 mg/kg (n=4), 7.5 mg/kg (n=4) or 5 mg/kg (n=4) of Compound 9a or vehicle alone as control (ctl n=10). A) graphical representation of the average of tumor growth in the control group (n=10) and in each Compound 9a treated groups. B) Survival of the whole population of mice of the untreated and treated groups were compared using a log rank test according to Kaplan Meier method. (R command, see World Wide Web: biostatgv.sentiweb.fr/?module=tests/surv). The solid line represents the survival rate of control untreated mice. The dotted line represents the survival rate of mice treated by compound 9a. C) Mice treatment with compound 9a when the tumors were already formed. Tumor growth representation in mice, treated either with DMSO (control: -♦-) or Compound 9a (-▪-). Tumor growth was controlled every week by live imaging. The solid line represents the tumor growth in control untreated mice. The dotted line represents the tumor growth in mice treated by compound 9a.
To further determine whether Compound 9a might also alter tumor growth of tumors that were already formed before treatment, 50000 GSC expressing a luciferase gene (GB1-luc) for luminescent live imaging were injected in the brain of 12 nude mice. […]

For the next data set, the system named is GB5. The data set can be described thus: XTT toxicity assay on GSC (GB5). It is filed as cell-based. The protocol: (§1) FIG. 4: Determination of compound toxicity on GSC and normal human cells. (A) GB5 were incubated with growing concentration of Compounds 9a-b and 18a. (B) human normal neural stem cell (NNSC), human normal kidney cells (NHEK), human normal hepatocytes (HEPRG) and (C) human endothelial cells (HUVEC) were treated with growing concentration of Compound 9a. 7 days later, the cells were subjected to an XTT assays as described in the method section. The results are the meaning of at least two separate experiments. Cell death was confirmed by trypan blue staining (not shown).
II—XTT assay: TG6 and GB5 were seeded at 2000 cells/well in 96 wells plate in NS34+ alone or containing 10, 20, 25, 50 and 100 uM of Compounds 9a-b and 18a-b. Cultures were incubated 4 days and the cell proliferation was evaluated as indicated by the manufacturer.
(§2) V—Toxicity tests: NNSC, GB5, TG6, HEK293, and HepaRG, HUVEC were seeded at 2000 cells/well in 96 wells plate in their respective culture mediums alone or containing growing concentration from 10 to 500 uM of Compounds 9a-b. Cultures were incubated 4 days and the cellular toxicity has been evaluated by XTT assays. Cell viability has been also assessed by counting living and dead cells with trypan blue staining.
XTT assays allows, through cell metabolism measurement, to determine a cytotoxic/cytostatic effects. Compounds 9a-b and 18a were tested for their eventual toxicity by XTT assays as described in the material and method section. At the working concentrations 10 to 25 uM, the compounds are not toxic for GSC (FIG. 4A). […] Compound 9a toxicity was further tested on normal neural stem cells (NNSC), human kidney (NHEK), human hepatocytes (HEPRG) and human endothelial cells (HUVEC). The compound is not toxic on NNSC, NHEK, HEPRG and HUVEC cells when used between 10 to 50 uM. At 100 uM and above, Compound 9a was toxic (FIG. 4).

In data set [2] the test system is human hepatocytes (HEPRG). Nature of the data set: XTT toxicity assay on human hepatocytes. The data set is classed as cell-based. The protocol:
as §1
HepaRG™ are terminally differentiated hepatic cells derived from a human hepatic progenitor cell that retains many characteristics of primary human hepatocytes. HepaRG were grown in William's E Medium supplemented with Tox medium supplement and glutamax.
as §2
XTT assays allows, through cell metabolism measurement, to determine a cytotoxic/cytostatic effects. […]

Where only a bound is given, the exact number is not on record here.

A word on the IC50: it is the midpoint of a concentration-inhibition curve.

As for `NCCCCNCCCNC(=O)c1csc(-c2csc(CCNC(=O)CCc3cn(CC4OC(OC5C(O)C(N)CC(N)C5OC5OC(CN)C(O)C(O)C5N)C(O)C4OC4OC(CN)C(O)C(O)C4N)nn3)n2)n1` (stereo not shown) [Compound 9a, N-(3-((4-Aminobutyl)amino)propyl)-2′-(2-(3-(1-methyl-1H-1,2,3-triazol-4-yl)propanamido)ethyl)-[2,4′-bithiazole]-4-carboxamide-neomycin], the GSC clonal expansion entry in the data set on GB5 cells (GB5, spheroids counted after two and three weeks) was “altered”. For the same compound, the IC50 in the data set with GB5 cells (Homo sapiens, GB5, read-out: inhibition of clonal expansion IC50) was under 10 µM. In data set [1], the “growth of tumors already formed before treatment” value was “repressed tumor growth”. The “toxicity for GSC (XTT)” value with GB5 (GB5, 50 uM and higher) is recorded as “relative toxicity”; in the data set on GB5 (GB5, 10 to 25 uM) it was “not toxic”. For the same compound, the “toxicity (XTT)” value in data set [2] (100 uM and above) is given as “toxic”; in data set [2] (between 10 to 50 uM), “not toxic”.
